Converted amounts (≈) assume the structure as drawn. Like-named read-outs stand apart in the source and are kept apart here. Peptide text beside a SMILES is read from it.
Key:
S. aureus USA300 = assay: microbe, parasite or virus in culture; assay type: cell-based, Staphylococcus aureus
Description: The bacterial strains used include the Gram-positive strains Staphylococcus aureus USA300 LAC, S. epidermidis 1457, and Bacillus subtilis 168, as well as the Gram-negative isolates Escherichia coli K12 and Acinetobacter baumannii B2367-12. Additional, drug resistance strains include Gram-positive Enterococcus faecium V286-17 (VRE) and S. aureus M838-17 (MRSA) and Gram-negative E. coli E423-17, E. coli E416-17 (ampC), and P. aeruginosa E411-17. Bacteria were cultivated in tryptic soy broth (TSB) (BD Bioscience, MD).
(§1) The antibacterial activity of peptides was evaluated using a standard broth microdilution protocol with minor modifications as described (Mishra, et al. (2012) J. Am. Chem. Soc., 134:12426-12429). In brief, logarithmic phase bacterial cultures (i.e., optical density at 600 nm≈0.5) were diluted to OD600 0.001 and partitioned into a 96-well polystyrene microplate at 90 μL per well. After treatment with 10 μL of peptide solutions two fold diluted to various concentrations, microplates were incubated at 37° C. overnight and read on a ChroMate® 4300 Microplate Reader at 630 nm (GMI, Ramsey, MN). […] To study the influence of medium conditions on the antimicrobial activity of peptides against S. aureus USA300, up to 200 mM sodium chloride (NaCl), 2 mM of calcium chloride, 5-10% of human serum, mouse plasma, fluid, or supernatants of tissue homogenates were included into the assays.
(§2) The bacterial strains used include the Gram-positive bacteria methicillin-resistant Staphylococcus aureus USA300, Enterococcus faecium V286-17 (VRE), S. aureus M838-17 (MRSA) and Gram-negative bacteria E. coli E423-17, E416-7 (ampC), P. aeruginosa E411-17, PA01, K. pneumoniae E406-17, ATCC13883, and A. baumannii B26-16. Bacteria were cultivated in tryptic soy broth (TSB) from BD Bioscience.
(§3) The antibacterial activity of peptides was evaluated using a standard broth microdilution protocol with minor modifications (Mishra, et al. (2017) Acta Biomater., 49:316-328). In brief, logarithmic phase bacterial cultures (i.e., optical density at 600 nm≈0.5) were diluted to 0.001 OD and aliquoted 90 μL per well into a 96-well polystyrene microplate. Added 10 μL peptides per well with various concentrations, plates were incubated at 37° C., overnight. Post incubation the plates are read at 630 nm using a ChroMate® Microplate Reader (GMI). […] To study the influence of medium conditions on the antimicrobial activity of peptides against S. aureus USA300 at different pHs (6.8, 7.2, and 8.0), 150 mM sodium chloride (NaCl), 5-10% of human serum, mouse plasma, and peritoneal fluid were included into the assays.

P. aeruginosa PAO1 = assay type: cell-based, Pseudomonas aeruginosa
Description: as §1, §2, §3

E. coli ATCC 25922 = assay type: cell-based, Escherichia coli
Description: as §1, §3

K. pneumoniae ATCC 13883 = assay type: cell-based, Klebsiella pneumoniae
Description: as §1, §2, §3

[1] = system: human red blood cells (hRBCs); assay: Hemolytic assay; assay type: cell-based
Description: Briefly, human red blood cells (hRBCs) were washed three times with phosphate buffer saline (PBS) and diluted to a 2% solution (v/v). After peptide treatment, incubation at 37° C. for one hour, and centrifugation at 5000 rpm for 10 minutes, aliquots of the supernatant were carefully transferred to a fresh 96-well microplate. The amount of hemoglobin released was measured at 545 nm. The percent lysis was calculated by assuming 100% release when human blood cells were treated with 2% Triton™ X-100, and 0% release when incubated with PBS buffer. The peptide concentration that caused 50% lysis of hRBCs is defined as HL50. The cell selectivity index (CSI) was calculated as the ratio between HL50 and MIC of the corresponding peptide against a select pathogenic species.
Hemolytic assays of peptides were performed as described (Mishra, et al. (2017) Acta Biomater., 49:316-328). Briefly, human red blood cells (hRBCs) obtained from UNMC Blood Bank. The blood washed 3× with isotonic saline (0.9% NaCl) and diluted to 2% blood cells (v/v). Peptide horine and verine at various concentrations were added into the 2% blood cells and incubated at 37° C. for 1 hour. Post incubation the plates were spun at 2000 rpm for 10 minutes, aliquots of the supernatant were carefully transferred to a fresh 96-well microplate. The amount of cells lysed is proportional to the hemoglobin released and measured at 545 nm using a ChroMate® microplate reader. The percent lysis was calculated by assuming 100% release when human blood cells were treated with 1% Triton™ X-100, and 0% release when incubated with PBS. The peptide concentration that caused 50% lysis of hRBCs is defined as HL50.

MIC S. aureus USA 300 (S. aureus USA300; USA300) [µM]	MIC P. aeruginosa PAO1 (P. aeruginosa PAO1; PAO1) [µM]	MIC E. coli ATCC 25922 (E. coli ATCC 25922; ATCC 25922) [µM]	MIC K. pneumoniae (K. pneumoniae ATCC 13883; ATCC 13883) [µM]	MIC K. pneumonia ATCC 13883 (K. pneumoniae ATCC 13883; ATCC 13883) [µM]	SMILES	Activity against Pseudomonas aeruginosa PAO1 (P. aeruginosa PAO1)	HL50 [1] [µM]	MIC S. aureus USA 300 (S. aureus USA300; Table 2, peptides amidated, quantified by UV) [µM]	MIC P. aeruginosa PAO1 (P. aeruginosa PAO1; Table 2, quantified by UV) [µM]	MIC E. coli ATCC 25922 (E. coli ATCC 25922; Table 2, quantified by UV) [µM]	MIC K. pneumoniae (K. pneumoniae ATCC 13883; Table 2, quantified by UV) [µM]	HL50 ([1]; Table 2, lysis of 50% hRBCs (2% v/v)) [µM]
0.78 (≈ 1.01 µg/mL)	12.5 (≈ 16.2 µg/mL)	3.1 (≈ 4.02 µg/mL)	3.1 (≈ 4.02 µg/mL)	–	CC(C)C[C@H](NC(=O)[C@H](CC(C)C)NC(=O)[C@H](CCCCN)NC(=O)CNC(=O)[C@H](C)NC(=O)[C@H](CC(C)C)NC(=O)[C@H](CO)NC(=O)[C@H](CC(C)C)NC(=O)[C@H](CC(C)C)NC(=O)[C@H](CO)NC(=O)[C@H](CC(C)C)NC(=O)[C@H](CC(C)C)NC(=O)CN)C(N)=O [DFT511, GLLSLLSLAGKLL] (H-GLLSLLSLAGKLL-NH2; N-terminus assumed)	active	14	–	–	–	–	–
0.78 (≈ 1.01 µg/mL)	>25	3.1 (≈ 4.02 µg/mL)	3.1 (≈ 4.02 µg/mL)	–	CC(C)C[C@H](NC(=O)[C@H](C)NC(=O)[C@H](CCCCN)NC(=O)CNC(=O)[C@H](CC(C)C)NC(=O)[C@H](CC(C)C)NC(=O)[C@H](CO)NC(=O)[C@H](CC(C)C)NC(=O)[C@H](CC(C)C)NC(=O)[C@H](CO)NC(=O)[C@H](CC(C)C)NC(=O)[C@H](CC(C)C)NC(=O)CN)C(N)=O [DFT512, GLLSLLSLLGKAL] (H-GLLSLLSLLGKAL-NH2; N-terminus assumed)	–	4	–	–	–	–	–
1.56 (≈ 2.02 µg/mL)	>25	3.1 (≈ 4.02 µg/mL)	3.1 (≈ 4.02 µg/mL)	–	CC(C)C[C@H](NC(=O)[C@H](CC(C)C)NC(=O)[C@H](CCCCN)NC(=O)CNC(=O)[C@H](CC(C)C)NC(=O)[C@H](C)NC(=O)[C@H](CCCCN)NC(=O)[C@H](CC(C)C)NC(=O)[C@H](C)NC(=O)[C@H](CO)NC(=O)[C@H](CC(C)C)NC(=O)[C@H](CC(C)C)NC(=O)CN)C(N)=O [DFT514, GLLSALKALGKLL] (H-GLLSALKALGKLL-NH2; N-terminus assumed)	–	36	–	–	–	–	–

The next lines start with the compound.

SMILES	MIC S. aureus USA 300 (S. aureus USA300; USA300) [µM]	MIC P. aeruginosa PAO1 (P. aeruginosa PAO1; PAO1) [µM]	MIC E. coli ATCC 25922 (E. coli ATCC 25922; ATCC 25922) [µM]	MIC K. pneumoniae (K. pneumoniae ATCC 13883; ATCC 13883) [µM]	MIC K. pneumonia ATCC 13883 (K. pneumoniae ATCC 13883; ATCC 13883) [µM]	Activity against Pseudomonas aeruginosa PAO1 (P. aeruginosa PAO1)	HL50 [1] [µM]	MIC S. aureus USA 300 (S. aureus USA300; Table 2, peptides amidated, quantified by UV) [µM]	MIC P. aeruginosa PAO1 (P. aeruginosa PAO1; Table 2, quantified by UV) [µM]	MIC E. coli ATCC 25922 (E. coli ATCC 25922; Table 2, quantified by UV) [µM]	MIC K. pneumoniae (K. pneumoniae ATCC 13883; Table 2, quantified by UV) [µM]	HL50 ([1]; Table 2, lysis of 50% hRBCs (2% v/v)) [µM]
CC(C)C[C@H](NC(=O)CN)C(=O)N[C@@H](CC(C)C)C(=O)N[C@@H](CO)C(=O)N[C@@H](CC(C)C)C(=O)N[C@@H](CC(C)C)C(=O)N[C@@H](CO)C(=O)N[C@@H](CC(C)C)C(=O)N[C@@H](CC(C)C)C(=O)NCC(=O)N[C@@H](CCCCN)C(=O)N[C@@H](CC(C)C)C(=O)N[C@@H](C)C(N)=O [DFT513, GLLSLLSLLGKLA] (H-GLLSLLSLLGKLA-NH2; N-terminus assumed)	–	–	–	–	–	–	–	1.56 (≈ 2.02 µg/mL)	>25	1.5 to 3.1	12.5 to 25	<3.1
CC[C@H](C)[C@H](NC(=O)[C@H](CCCNC(=N)N)NC(=O)[C@H](CCCNC(=N)N)NC(=O)[C@H](CCCNC(=N)N)NC(=O)[C@H](Cc1c[nH]c2ccccc12)NC(=O)[C@H](Cc1c[nH]c2ccccc12)NC(=O)[C@@H](N)Cc1c[nH]c2ccccc12)C(=O)N[C@@H](Cc1c[nH]c2ccccc12)C(N)=O [WW303, WWWRRRIW] (H-WWWRRRIW-NH2; N-terminus and C-terminus assumed)	–	25 to 50	–	–	>25	–	>200	–	–	–	–	–
CC[C@H](C)[C@H](NC(=O)[C@H](CCCNC(=N)N)NC(=O)[C@H](CCCNC(=N)N)NC(=O)[C@H](CC(C)C)NC(=O)[C@H](Cc1c[nH]c2ccccc12)NC(=O)[C@H](Cc1c[nH]c2ccccc12)NC(=O)[C@@H](N)Cc1c[nH]c2ccccc12)C(=O)N[C@@H](CCCNC(=N)N)C(N)=O [WW305, WWWLRRIR] (H-WWWLRRIR-NH2; N-terminus and C-terminus assumed)	–	12.5 (≈ 15.9 µg/mL)	–	–	>25	–	>200	–	–	–	–	–
